Patent US20210338820A1, “PHARMACEUTICAL COMPOSITION COMPRISING ANTIEMETIC COMPOUNDS AND POLYORTHOESTER” (Heron Therapeutics, Inc., priority 2012, published 2021)

Assays:
[1] = In-vitro release of formulation of aprepitant and granisetron (Example 1 formulation); type: physicochemical; settings: 37° C.; for active agent released from the formulation: Example 1 formulation, PBS + 2% CTAB; for in vitro release proceeded in a linear fashion up to: Example 1 semi-solid polyorthoester formulation, phosphate buffered saline + 2% CTAB, HPLC, FIG. 3
Description: In a first embodiment, 375 mg of aprepitant was dissolved in 1.3 g of a polyorthoester-compatible liquid excipient, dimethyl sulfoxide, and heated until completely dissolved. […] In a further embodiment, the formulation was weighed into vials and filled with a phosphate buffered saline solution and 2% CTAB (cetrimonium bromide). The vials were then stored at 37° C. Aliquots were taken daily and analyzed by HPLC to monitor for the release of granisetron and aprepitant from the formulation.
A formulation as described in Example 1 was weighed into vials and filled with a phosphate buffered saline solution and 2% CTAB (cetrimonium bromide). The vials were then stored at 37° C. Aliquots were taken daily and analyzed by HPLC to monitor for the release of granisetron and aprepitant from the formulation.

[2] = In-vitro release of formulation of fosaprepitant and granisetron (Example 6 formulation); type: physicochemical; settings: 37° C.; for active agent released from the formulation: Example 6 formulation, PBS; for in vitro release proceeded in a linear fashion up to: Example 6 semi-solid polyorthoester formulation, phosphate buffered saline, HPLC, FIG. 1
Excerpt: In a fifth embodiment, a formulation as described in Example 6 was weighed into vials and filled with a phosphate buffered saline solution.
A formulation as described in Example 6 was weighed into vials and filled with a phosphate buffered saline solution.

[3] = In vitro release of a formulation containing aprepitant (Example 3 formulation); type: physicochemical; settings: Example 3 semi-solid polyorthoester formulation; PBS + 2% CTAB, 37° C., HPLC, FIG. 4
Description: In a further embodiment, the formulation was weighed into vials and filled with a phosphate buffered saline solution and 2% CTAB. The vials were then stored at 37° C. and analyzed by HPLC to monitor for the release of aprepitant from the formulation (see FIG. 4).
A formulation as described in Example 3 was weighed into vials and filled with a phosphate buffered saline solution and 2% CTAB. The vials were then stored at 37° C. and analyzed by HPLC to monitor for the release of aprepitant from the formulation.

[4] = dog, in vivo, sc
Description: The syringes were stored at 2-8 C and brought to room temperature 1 hour before administration. Each dog received a single subcutaneous injection of the entire contents of 1 syringe (0.5 gm) over the dorsal lumbar muscle on Day 1. Blood was drawn from all dogs at the following time points: T=0, (immediately prior to drug administration), 1, 6, 12, 24, 48, 72, 96, 120, 144, and 168 hours post administration.

| active agent released from the formulation ([1]; at about 48 hours) | active agent released from the formulation ([1]; at about 144 hours) | in vitro release proceeded in a linear fashion up to [1] | active agent released from the formulation ([2]; at about 100 hours) | active agent released from the formulation ([1]; after about 120 hours) | in vitro release proceeded in a linear fashion up to [3] | bioavailability (areas under the curves) [4] | Structure (SMILES) | active agent released from the formulation ([2]; after about 60 hours) | active agent released from the formulation ([2]; at about 45 hours) | in vitro release proceeded in a linear fashion up to [2] |
| --- | --- | --- | --- | --- | --- | --- | --- | --- | --- | --- |
| about 65% | about 90% | about 48 hours | Nearly all | – | – | – | CN1C2CCCC1CC(NC(=O)c1nn(C)c3ccccc13)C2 (centres unmarked) [granisetron] | about 80% | about 25% | about 45 hours |
| about 65% | Essentially all | about 48 hours | about 65% | about 90% | about 72 hours | good bioavailability | C[C@@H](O[C@H]1OCCN(Cc2n[nH]c(=O)[nH]2)[C@H]1c1ccc(F)cc1)c1cc(C(F)(F)F)cc(C(F)(F)F)c1 [aprepitant] | – | – | – |
| – | – | – | – | – | – | – | C[C@@H](O[C@H]1OCCN(Cc2nc(O)n(P(=O)(O)O)n2)[C@H]1c1ccc(F)cc1)c1cc(C(F)(F)F)cc(C(F)(F)F)c1 [fosaprepitant] | about 60% | about 25% | about 45 hours |
